ChEMBL document CHEMBL1201862, “PubChem BioAssay data set” (2004)
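Following 48 hours of exposure in 96-well plates, responses at five concentrations were used to interpolate endpoints linearly. GI50 marks 50% less growth.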 Activity calls are given as the source filed them. No stated cut-off is given here; in the data, active = GI50 up to about 1.1 µM and inactive = higher.

Assays:
Test in all cases: inhibition of tumour cell growth, NCI panel, 48 h
786-0 = system: 786-0
CCRF-CEM = system: CCRF-CEM
HL-60 = system: HL-60
HOP-62 = system: HOP-62
LOX IMVI = system: LOX IMVI
MOLT-4 = system: MOLT-4
NCI-H23 = system: NCI-H23
RXF 393 = system: RXF 393
SK-MEL-2 = system: SK-MEL-2
SK-OV-3 = system: SK-OV-3
TK-10 = system: TK-10
UO-31 = system: UO-31
CAKI-1 = system: CAKI-1
OVCAR-4 = system: OVCAR-4
OVCAR-5 = system: OVCAR-5
SF-268 = system: SF-268
HOP-92 = system: HOP-92

Measured: GI50

O=C(Nc1cc(Cl)ccc1Cl)c1cc2cccc(Br)c2oc1=O
inactive: 786-0 > 100 µM | CCRF-CEM > 100 µM | HL-60 > 100 µM | HOP-62 47.2 µM | LOX IMVI > 100 µM | MOLT-4 > 100 µM | NCI-H23 > 100 µM | RXF 393 > 100 µM | SK-MEL-2 > 100 µM | SK-OV-3 > 100 µM | TK-10 > 100 µM | UO-31 > 100 µM

CCCCNC(=S)OCCC(C)CCCC(C)C (configuration not stated)
inactive: 786-0 > 100 µM | CAKI-1 > 100 µM | CCRF-CEM > 100 µM | HL-60 > 100 µM | HOP-62 > 100 µM | LOX IMVI > 100 µM | MOLT-4 > 100 µM | NCI-H23 > 100 µM | OVCAR-4 > 100 µM | OVCAR-5 > 100 µM | RXF 393 > 100 µM | SF-268 > 100 µM | SK-MEL-2 > 100 µM | SK-OV-3 > 100 µM | TK-10 > 100 µM | UO-31 > 100 µM

CCN(CC)CC(=O)NC1c2ccccc2Oc2ccccc21
inactive: 786-0 > 100 µM | CCRF-CEM > 100 µM | HL-60 > 100 µM | HOP-62 > 100 µM | LOX IMVI > 100 µM | MOLT-4 > 100 µM | NCI-H23 > 100 µM | OVCAR-4 > 100 µM | OVCAR-5 > 100 µM | RXF 393 > 100 µM | SF-268 > 100 µM | SK-OV-3 > 100 µM | TK-10 > 100 µM | UO-31 > 100 µM

C/C(CC(=O)Nc1cccc([N+](=O)[O-])c1)=N\NC(=O)C[n+]1ccccc1
inactive: 786-0 > 100 µM | CCRF-CEM > 100 µM | HL-60 > 100 µM | HOP-62 > 100 µM | HOP-92 > 100 µM | LOX IMVI > 100 µM | MOLT-4 > 100 µM | NCI-H23 > 100 µM | OVCAR-5 > 100 µM | RXF 393 > 100 µM | SF-268 > 100 µM | SK-MEL-2 > 100 µM | SK-OV-3 > 100 µM | TK-10 > 100 µM | UO-31 > 100 µM

CSc1cccc(-n2c3nc(=O)n(C)c(=O)c-3nc3ccccc32)c1
inactive: 786-0 4.92 µM | CAKI-1 3.91 µM | CCRF-CEM 11 µM | HL-60 3.34 µM | HOP-62 18.1 µM | HOP-92 9.33 µM | MOLT-4 12 µM | NCI-H23 4.35 µM | OVCAR-4 9.53 µM | OVCAR-5 18 µM | SF-268 16.6 µM | SK-MEL-2 13 µM | SK-OV-3 35.3 µM | TK-10 21.8 µM | UO-31 17.4 µM
